Measurements published in PubChem BioAssay (NCI).
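Dose response: 5 concentrations. Exposure: 48 h. Format: 96-well plates. Endpoint: linear interpolation; highest concentration if not reached. GI50: concentration for 50% inhibition of growth. At the TGI there is no net growth.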

How the values were obtained:
Assay in all cases: NCI anticancer screen, dose series, 48 h
[1] = tested on: SK-MEL-28 melanoma
[2] = tested on: TK-10 renal
[3] = tested on: A498 renal
[4] = tested on: OVCAR-8 ovarian
[5] = tested on: SF-539 CNS
[6] = tested on: CCRF-CEM leukemia
[7] = tested on: RXF 393 renal
[8] = tested on: RPMI-8226 leukemia
[9] = tested on: MCF7 breast
[10] = tested on: NCI/ADR-RES ovarian

SMILES	TGI [1] [µM]	TGI [2] [µM]	TGI [3] [µM]	TGI [4] [µM]	TGI [5] [µM]	TGI [6] [µM]	TGI [7] [µM]	TGI [8] [µM]	TGI [9] [µM]	TGI [10] [µM]	GI50 [1] [µM]	GI50 [2] [µM]	GI50 [3] [µM]	GI50 [4] [µM]	GI50 [8] [µM]	GI50 [5] [µM]	GI50 [6] [µM]	GI50 [7] [µM]	GI50 [9] [µM]	GI50 [10] [µM]
Cn1cc(NC(=O)c2cc(NC(=O)Nc3cc(C(=O)Nc4cc(C(=O)NCCC(=N)N)n(C)c4)n(C)c3)cn2C)cc1C(=O)NCCC(=N)N	> 100	54.7	63.2	50	35.2	77	42.9													
CC1=C(SCc2ccccc2)C(=O)c2ccccc2C1=O	36.5	36.9	62.1	38.8	30		30.4	7.36	40.6	61.1										
O=C(O)CNS(=O)(=O)c1ccc(NC(=O)c2ccc(F)cc2)cc1	> 100	> 100	> 100	> 100	> 100	> 100	> 100	> 100												
CC(=O)O[C@H]1CC[C@@]2(C)C(CC[C@]3(C)C2CC[C@]2(C)Oc4c(C)cc(O)cc4C[C@@H]23)C1(C)C (stereo partly drawn)	22.9	29.3	26	23.8		16.8	7.09	6.96												
Oc1ccc2occ3c2c1CCC3	> 100	> 100	> 100	> 100	> 100	> 100	> 100	> 100												
O=c1[nH]c(=O)n(C2CC(O)C(CO)O2)cc1C(OCC(F)(F)F)OCC(F)(F)F (stereo not drawn)	> 100	> 100	> 100	> 100	> 100	> 100	> 100	> 100												
O=S(=O)([O-])[O-].[Cl-].[NH2-].[NH2-].[NH2-].[NH2-].[Ru+3].c1ccc(-c2cccnc2)cc1	> 100	> 100	> 100	> 100	> 100	> 100		> 100			> 100	> 100	> 100	> 100	> 100	> 100	> 100			
CCN(CC)CC(=O)/C=C/c1ccc(C)cc1	43	74.8	> 100	43.8	37		44.2	> 100												
CCOCC(=O)N[C@H]1CCc2cc(OC)c(OC)c(OC)c2-c2ccc(SC)c(=O)cc21	> 100	> 100	1.49	4.64	< 0.01	> 70.2	2.33	> 100	> 51.4											
CN(C)c1ccc(/C=C/C(=O)C(C)(C)C)cc1Br	47.7	87.3	> 100	54.1	71	85.1		58.7												
Cc1ccc2c[c]1[Hg][CH2]COS2(=O)=O	29.9	31.7	29.3	29.5	32.5		29.3		39.4	62.1	16.4	17.8	15.8	16		18		15.9	17.9	25
C=CCC12CCC(=O)C=C1CCC1(C2)OCCO1 (stereo not drawn)	> 100	> 100	> 100	> 100	> 100	> 100	> 100	> 100												
Cc1cc2c(cc1C)[n+](=O)c(C(=O)/C=C/c1ccc(Cl)cc1)c(C)n2[O-]	59.4	58.5	75.9	84.2	47.3	> 100		60.5												
O=C(CC1(O)C(=O)Nc2ccc(Br)cc21)c1ccc(Cl)cc1 (stereo not drawn)	> 100	> 100	> 100	> 100	> 100	> 100	> 100	> 100												
CC1CCC2(NC1)OC1CC3[C@@H]4CC=C5C=CCC[C@]5(C)C4CC[C@]3(C)C1C2C (stereo partly drawn)	30	35.3	> 100	48.1	43.2	55.4	> 100	46												
NC1CCCCC1N.O=C([O-])P(=O)([O-])[O-].[Na+].[Pt+4] (stereo not drawn)	> 100	> 100	> 100	> 100	> 100	> 100	> 100	> 100			> 100	> 100	> 100	98.2	22.2	> 100	> 100	> 100		
O=C(Cn1c(=O)c(-c2ccccc2)nc2ccccc21)c1cccnc1	> 100	> 100		> 100		> 100		> 100	> 100	> 100	> 100	> 100		> 100	> 100		> 100		> 100	> 100
O=c1[nH]c(-c2ccccc2)nc2ccc(Cl)cc12	> 100	> 100		> 100	> 100		> 100	> 100												
NC(N)=N/N=C/c1c(-c2cccs2)nc2sccn12	25.3		13.6	49	25.5	27.1		> 100		27.6	12.6		4.46	24.1	12.6	12.4	1.61			14.5
CCNc1c(C(=O)N(CC)CC)c(=O)[nH]c2ncccc12	> 100	> 100	> 100	> 100	> 100	> 100	> 100	> 100												
Cc1ccc(C(=O)O/N=C2/CCCCC2CN(C)C)cc1 (stereo not drawn)	> 100	> 100	> 100	> 100	> 100	> 100	> 100	> 100												
COc1cc([C@@H]2c3cc4c(cc3C(Br)[C@H]3COC(=O)[C@H]23)OCO4)cc(OC)c1OC (stereo partly drawn)	> 100	> 100	0.177		0.598	> 100	6.48	> 100	> 100		53.5		0.0257	0.31	0.507	0.185	0.363	0.0815	0.168	
